Assays:
[1] = test system: human prostate cancer cells (PC3); experiment: Cytotoxicity by SRB assay, PC3 cells; assay type: cell-based; details: androgen-independent metastatic human prostate cancer cells (PC3), 72 h, 0.01 μM to 100 μM
Procedure: (§1) The human prostate cancer cells (PC3) and human osteosarcoma cells (MG-63) were obtained from Nawah Scientific Inc. (Mokatam, Cairo, Egypt) and cultured in DMEM (Dulbecco's modified eagle's medium), Gibco, USA, supplemented with fetal bovine serum (FBS) at a concentration of 10% and 100 U/mL of penicillin and streptomycin (PS). The Cells were incubated at 37° C. in a humidified environment that contained 5% CO2.
(§2) Cells were seeded in 96-well plates as aliquots of 100 μL cell suspension and incubated in a complete media for 24 h. afterward, cells were treated with N′-(1-naphthoyloxy)-2-(benzo[d]thiazol-2-yl)acetimidamide at diverse concentrations ranging from 0.01 μM to 100 μM for 72 h. Then, cells were fixed at 4° C. for one hour with 150 μL of 10% trichloroacetic acid (TCA). After washing the cells five times with distilled water, 70 μL of sulforhodamine (SRB) solution (0.4% w/v) was added and incubated for 10 min at room temperature in a dark place. […] Then, 150 μL of Tris pH 10.5 (10 mM) was added, and the absorbance was measured at 540 nm using a BMG LABTECH®-FLUOstar Omega microplate reader (Ortenberg, Germany). Half maximal inhibitory concentrations (IC50) values were calculated for each experiment using GraphPad Prism 6 software. […]
(§3) The inhibition was calculated using the following equation: Inhibition %=100−Average Viability

[2] = test system: human osteosarcoma cells (MG-63); experiment: Cytotoxicity by SRB assay, MG-63 cells; assay type: cell-based; details: osteosarcoma (MG-63) cells, 72 h, 0.01 μM to 100 μM
Procedure: as §1, §2, §3

Bovine Serum Albumin = Bovine Serum Albumin (Bos taurus, UniProt P02769); experiment: Bovine Serum Albumin Assay (BSA), inhibition of protein denaturation; assay type: biochemical; details: BSA 0.4% w/v, pH 6.4, 72° C. for 10 minutes, 20-100 μg/mL, turbidity at 660 nm
Procedure: In vitro-inflammatory activities of the tested samples were determined using a modified method of the BSA assay reported by Williams et al. BSA solution (0.4%, w/v) was prepared in Tris Buffered Saline. The pH was adjusted to 6.4 with glacial acetic acid. Different dilutions of 20, 40, 60, 80, and 100 μg/mL of the stock solutions were added to test tubes containing 1 mL of 0.4%, w/v BSA buffer solution. Both negative (solvent) and positive (aspirin) controls were assayed in a similar manner. The solutions were then heated in a water bath at 72° C. for 10 minutes and cooled for 20 minutes under laboratory conditions. The turbidity of the solutions (level of protein precipitation) was measured at 660 nm in Spectrophotometer (V-770 UV-Visible/NIR Spectrophotometer).
The percentage inhibition of precipitation (protein denaturation) was determined relative to the negative control using the following equation:
[formula] % Anti-Denaturation Activity=% Inhibition of Protein Denaturation=% Anti-inflammatory Activity

Sequence of Bovine Serum Albumin (P02769 25-607): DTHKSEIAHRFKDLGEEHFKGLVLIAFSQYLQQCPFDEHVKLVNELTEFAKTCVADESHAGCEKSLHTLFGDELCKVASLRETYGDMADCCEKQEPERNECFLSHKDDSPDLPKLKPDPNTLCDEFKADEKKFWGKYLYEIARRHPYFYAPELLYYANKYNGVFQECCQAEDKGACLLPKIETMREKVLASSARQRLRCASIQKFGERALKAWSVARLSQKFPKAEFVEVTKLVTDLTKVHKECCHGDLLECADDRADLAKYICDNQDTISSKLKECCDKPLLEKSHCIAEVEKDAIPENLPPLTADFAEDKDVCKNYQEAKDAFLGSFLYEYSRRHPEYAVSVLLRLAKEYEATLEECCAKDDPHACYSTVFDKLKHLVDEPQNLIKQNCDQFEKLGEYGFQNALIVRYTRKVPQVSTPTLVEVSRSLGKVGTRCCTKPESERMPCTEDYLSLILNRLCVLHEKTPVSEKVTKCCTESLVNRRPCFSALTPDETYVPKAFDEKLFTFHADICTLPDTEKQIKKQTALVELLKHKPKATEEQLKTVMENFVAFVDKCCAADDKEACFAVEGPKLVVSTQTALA

- in vitro anti-inflammatory activity (inhibition of protein denaturation) (Bovine Serum Albumin): considerable anti-inflammatory effect
SMILES: COc1ccc(/C=N/c2nn(CN3CCN(c4cc5c(cc4F)c(=O)c(C(=O)O)cn5C4CC4)CC3)c(=S)s2)cc1 [1-cyclopropyl-6-fluoro-7-(4-((5-(4-methoxybenzylideneamino)-2-thioxo-1,3,4-thiadiazol-3(2H)-yl)methyl)piperazin-1-yl)-4-oxo-1,4-dihydroquinoline-3-carboxylic acid]
- antiproliferative activity against PC3 cells [1]: excellent antiproliferative activities
- antiproliferative activity against MG-63 cells [2]: excellent antiproliferative activities

— patent US12187718B1, “1-cyclopropyl-6-fluoro-7-(4-((5-(4-methoxybenzylideneamino)-2-thioxo-1,3,4-thiadiazol-3(2H)-yl)methyl)piperazin-1-yl)-4-oxo-1,4-dihydroquinoline-3-carboxylic acid as an anti-inflammatory and anticancer compound” (KING FAISAL UNIVERSITY, priority 2023, dated 2025)
